Data: ChEMBL document CHEMBL1201862, “PubChem BioAssay data set” (2004)
The source made the active and inactive calls.

Experiments:
Hexokinase-1 = target: T1, Hexokinase-1 (Homo sapiens, UniProt P19367); test: HK1 enzyme inhibition by HKDC1 hits, SAR follow-up, selectivity assay for HKDC1 inhibitor project, biochemical, set 2, resazurin fluorescence coupled readout (AID 588356); format: functional
T1 sequence (P19367 whole entry): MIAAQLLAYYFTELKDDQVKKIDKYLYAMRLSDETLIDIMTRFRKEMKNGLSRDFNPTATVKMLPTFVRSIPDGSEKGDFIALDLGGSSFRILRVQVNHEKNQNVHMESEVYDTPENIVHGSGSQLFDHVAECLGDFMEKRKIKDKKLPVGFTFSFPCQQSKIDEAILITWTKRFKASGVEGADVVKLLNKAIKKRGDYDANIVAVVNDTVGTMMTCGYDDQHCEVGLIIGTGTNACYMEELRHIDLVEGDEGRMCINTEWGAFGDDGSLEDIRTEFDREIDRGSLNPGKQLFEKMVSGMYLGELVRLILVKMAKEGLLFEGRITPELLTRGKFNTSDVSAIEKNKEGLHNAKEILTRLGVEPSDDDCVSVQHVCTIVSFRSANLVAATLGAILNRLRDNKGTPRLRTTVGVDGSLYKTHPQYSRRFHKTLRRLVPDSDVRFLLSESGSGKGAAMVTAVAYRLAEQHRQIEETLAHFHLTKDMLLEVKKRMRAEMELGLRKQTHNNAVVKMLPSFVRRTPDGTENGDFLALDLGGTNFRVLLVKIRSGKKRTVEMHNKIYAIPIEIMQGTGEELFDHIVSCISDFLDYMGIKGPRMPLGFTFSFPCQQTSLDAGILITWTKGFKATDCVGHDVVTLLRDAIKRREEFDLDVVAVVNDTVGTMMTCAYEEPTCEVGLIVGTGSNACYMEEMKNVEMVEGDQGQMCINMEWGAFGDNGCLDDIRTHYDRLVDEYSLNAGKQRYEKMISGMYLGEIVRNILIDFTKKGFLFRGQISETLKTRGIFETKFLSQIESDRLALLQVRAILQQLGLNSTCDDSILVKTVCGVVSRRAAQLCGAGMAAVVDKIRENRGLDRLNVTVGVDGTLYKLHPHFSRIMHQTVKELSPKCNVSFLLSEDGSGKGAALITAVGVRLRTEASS

Protein RecA = target: T2, Protein RecA (Mycobacterium tuberculosis, UniProt P9WHJ3); test: Fluorescence Cell-Free Homogeneous Dose Retest to Identify Inhibitors of RecA-Intein Splicing Activity. [Related pubchem assays (depositor defined):AID2097, AID2223, AID489010, AID492950]; format: functional
T2 sequence (P9WHJ3 whole entry): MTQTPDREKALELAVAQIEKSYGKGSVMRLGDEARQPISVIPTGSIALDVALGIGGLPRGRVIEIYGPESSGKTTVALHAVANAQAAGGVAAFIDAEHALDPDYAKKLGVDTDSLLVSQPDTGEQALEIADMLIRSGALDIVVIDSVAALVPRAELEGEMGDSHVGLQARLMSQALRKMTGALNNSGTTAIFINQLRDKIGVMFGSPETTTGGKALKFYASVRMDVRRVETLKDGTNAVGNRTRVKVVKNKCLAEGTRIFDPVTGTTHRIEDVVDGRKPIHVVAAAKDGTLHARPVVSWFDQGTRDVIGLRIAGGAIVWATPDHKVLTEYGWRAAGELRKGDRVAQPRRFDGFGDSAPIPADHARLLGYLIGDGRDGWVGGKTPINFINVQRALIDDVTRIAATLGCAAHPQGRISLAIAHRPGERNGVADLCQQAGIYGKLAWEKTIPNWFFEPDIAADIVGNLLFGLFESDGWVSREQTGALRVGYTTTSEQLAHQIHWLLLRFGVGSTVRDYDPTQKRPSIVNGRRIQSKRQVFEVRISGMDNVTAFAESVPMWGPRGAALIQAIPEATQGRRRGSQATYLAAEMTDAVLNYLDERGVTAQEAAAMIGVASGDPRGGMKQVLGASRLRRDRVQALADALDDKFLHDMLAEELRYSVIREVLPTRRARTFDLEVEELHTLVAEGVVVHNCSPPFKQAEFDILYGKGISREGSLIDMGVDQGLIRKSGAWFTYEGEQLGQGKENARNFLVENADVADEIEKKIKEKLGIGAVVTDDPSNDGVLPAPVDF

[1] = target: Cystic fibrosis transmembrane conductance regulator/Golgi-associated PDZ and coiled-coil motif-containing protein (Homo sapiens, UniProt P13569+Q9HD26); test: CAL PDZ peptide-binding inhibitors, dose response, biochemical, fluorescence polarization, Cerulean-tagged CAL PDZ, cherry-picks (AID 504773)
Chain of Cystic fibrosis transmembrane conductance regulator/Golgi-associated PDZ and coiled-coil motif-containing protein (P13569 whole entry, other chains not shown): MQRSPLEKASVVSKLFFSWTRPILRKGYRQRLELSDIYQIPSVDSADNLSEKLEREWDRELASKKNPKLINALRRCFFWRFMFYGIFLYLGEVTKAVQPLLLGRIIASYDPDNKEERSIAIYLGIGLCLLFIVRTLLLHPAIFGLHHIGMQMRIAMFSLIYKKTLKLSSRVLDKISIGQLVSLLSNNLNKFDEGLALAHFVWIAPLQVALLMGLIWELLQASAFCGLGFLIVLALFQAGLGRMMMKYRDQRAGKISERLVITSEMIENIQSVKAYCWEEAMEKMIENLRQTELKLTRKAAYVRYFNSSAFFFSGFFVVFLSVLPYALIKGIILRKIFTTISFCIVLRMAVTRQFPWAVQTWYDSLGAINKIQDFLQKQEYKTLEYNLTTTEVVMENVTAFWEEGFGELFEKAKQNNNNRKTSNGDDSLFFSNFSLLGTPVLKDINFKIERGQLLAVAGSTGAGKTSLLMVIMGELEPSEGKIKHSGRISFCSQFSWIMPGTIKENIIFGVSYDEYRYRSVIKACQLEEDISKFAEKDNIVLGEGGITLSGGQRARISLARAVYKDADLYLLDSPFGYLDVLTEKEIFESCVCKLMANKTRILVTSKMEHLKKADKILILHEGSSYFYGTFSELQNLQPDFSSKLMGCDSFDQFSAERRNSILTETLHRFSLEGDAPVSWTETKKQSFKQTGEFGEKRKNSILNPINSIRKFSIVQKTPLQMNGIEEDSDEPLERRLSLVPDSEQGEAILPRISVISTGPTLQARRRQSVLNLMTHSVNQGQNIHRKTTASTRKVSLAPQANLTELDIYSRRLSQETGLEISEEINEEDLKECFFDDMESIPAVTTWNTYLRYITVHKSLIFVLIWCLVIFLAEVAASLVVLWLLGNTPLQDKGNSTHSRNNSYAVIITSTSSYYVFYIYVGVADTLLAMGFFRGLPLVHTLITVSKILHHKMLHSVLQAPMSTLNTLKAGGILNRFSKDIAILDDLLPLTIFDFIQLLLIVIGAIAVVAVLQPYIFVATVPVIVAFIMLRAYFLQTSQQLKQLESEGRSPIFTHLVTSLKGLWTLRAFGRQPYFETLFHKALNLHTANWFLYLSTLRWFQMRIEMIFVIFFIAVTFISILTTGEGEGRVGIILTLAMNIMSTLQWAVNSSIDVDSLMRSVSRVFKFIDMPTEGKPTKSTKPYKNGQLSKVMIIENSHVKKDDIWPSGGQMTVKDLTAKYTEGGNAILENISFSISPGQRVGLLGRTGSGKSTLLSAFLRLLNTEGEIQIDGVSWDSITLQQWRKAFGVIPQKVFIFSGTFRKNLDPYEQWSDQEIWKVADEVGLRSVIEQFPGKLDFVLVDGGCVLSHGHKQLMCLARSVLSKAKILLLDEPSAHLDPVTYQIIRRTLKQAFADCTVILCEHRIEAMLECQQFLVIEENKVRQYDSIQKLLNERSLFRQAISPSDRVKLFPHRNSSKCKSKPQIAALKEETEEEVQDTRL

[2] = target: T3, Replicative DNA helicase DnaB (Mycobacterium tuberculosis, UniProt P9WMR3); test: DnaB intein splicing inhibitors, dose response, biochemical, cell-free fluorescence (AID 449749); format: functional
T3 sequence (P9WMR3 whole entry): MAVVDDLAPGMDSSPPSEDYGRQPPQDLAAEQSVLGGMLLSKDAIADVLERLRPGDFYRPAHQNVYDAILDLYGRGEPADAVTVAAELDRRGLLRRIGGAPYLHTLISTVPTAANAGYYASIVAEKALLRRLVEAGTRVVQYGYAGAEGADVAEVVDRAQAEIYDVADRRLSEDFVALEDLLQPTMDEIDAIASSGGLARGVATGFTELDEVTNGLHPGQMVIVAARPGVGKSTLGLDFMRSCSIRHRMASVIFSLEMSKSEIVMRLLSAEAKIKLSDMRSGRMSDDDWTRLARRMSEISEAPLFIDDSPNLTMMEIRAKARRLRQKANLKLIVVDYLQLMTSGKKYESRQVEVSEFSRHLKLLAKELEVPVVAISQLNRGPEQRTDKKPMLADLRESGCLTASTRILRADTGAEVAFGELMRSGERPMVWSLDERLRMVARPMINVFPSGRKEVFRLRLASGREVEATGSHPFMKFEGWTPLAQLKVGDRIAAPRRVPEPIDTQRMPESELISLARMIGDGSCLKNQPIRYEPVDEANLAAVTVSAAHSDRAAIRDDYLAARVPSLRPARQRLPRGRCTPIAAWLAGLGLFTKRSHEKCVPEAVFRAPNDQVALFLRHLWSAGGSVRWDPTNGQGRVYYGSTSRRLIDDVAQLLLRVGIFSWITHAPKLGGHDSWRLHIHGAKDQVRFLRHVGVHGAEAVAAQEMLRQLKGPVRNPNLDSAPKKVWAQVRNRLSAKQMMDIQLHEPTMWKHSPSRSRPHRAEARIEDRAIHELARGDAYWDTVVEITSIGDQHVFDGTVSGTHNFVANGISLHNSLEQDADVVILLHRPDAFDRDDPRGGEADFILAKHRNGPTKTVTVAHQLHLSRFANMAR

Hexokinase HKDC1 [3] = target: T4, Hexokinase HKDC1 (Homo sapiens, UniProt Q2TB90); test: HKDC1 hexokinase inhibitors, SAR follow-up, biochemical, set 2 (AID 588355); format: functional
T4 sequence (Q2TB90 whole entry): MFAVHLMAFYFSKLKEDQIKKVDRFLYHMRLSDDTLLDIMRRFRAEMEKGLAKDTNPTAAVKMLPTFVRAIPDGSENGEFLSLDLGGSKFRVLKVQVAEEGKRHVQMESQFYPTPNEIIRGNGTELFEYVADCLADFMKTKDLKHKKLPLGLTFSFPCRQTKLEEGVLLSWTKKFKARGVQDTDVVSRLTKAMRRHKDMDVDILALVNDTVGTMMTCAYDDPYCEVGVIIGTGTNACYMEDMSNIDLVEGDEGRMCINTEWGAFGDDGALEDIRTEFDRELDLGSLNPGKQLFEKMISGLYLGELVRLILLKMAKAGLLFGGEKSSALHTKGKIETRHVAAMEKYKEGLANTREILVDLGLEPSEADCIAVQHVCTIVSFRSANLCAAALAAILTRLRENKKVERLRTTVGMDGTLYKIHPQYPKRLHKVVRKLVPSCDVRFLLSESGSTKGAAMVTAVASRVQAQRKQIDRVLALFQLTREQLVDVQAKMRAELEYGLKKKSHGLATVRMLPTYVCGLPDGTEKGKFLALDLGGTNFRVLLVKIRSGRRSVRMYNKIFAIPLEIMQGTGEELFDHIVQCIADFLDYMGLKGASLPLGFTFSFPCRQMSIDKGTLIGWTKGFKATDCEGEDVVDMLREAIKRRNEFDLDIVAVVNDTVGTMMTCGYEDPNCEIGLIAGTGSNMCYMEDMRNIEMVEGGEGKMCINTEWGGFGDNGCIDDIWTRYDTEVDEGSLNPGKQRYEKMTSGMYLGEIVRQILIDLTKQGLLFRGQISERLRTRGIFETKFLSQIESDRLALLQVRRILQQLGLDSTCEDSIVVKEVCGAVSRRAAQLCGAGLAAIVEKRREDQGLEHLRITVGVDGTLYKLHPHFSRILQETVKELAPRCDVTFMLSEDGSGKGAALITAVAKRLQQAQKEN

Hexokinase HKDC1 [4] = target: T4, Hexokinase HKDC1; test: HKDC1 hexokinase inhibitors, dose response, biochemical, W721R variant (AID 504729); format: functional
[5] = microbe, parasite or virus in culture; format: functional; conditions: Mycobacterium tuberculosis
[6] = growth suppression of PTEN-null colon cells, dose response, cell-based, HCT116 PTEN knockout (AID 1047); format: functional;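 also: HCT116 colon tumor cells with PTEN knocked out; cells exposed to compound for 60 hours before readout; potency for loss of cell viability measured by luminescence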
[7] = target: T5, Microphthalmia-associated transcription factor (Homo sapiens, UniProt O75030); test: TRPM1 promoter luciferase signal decrease, dose response, MITF inhibitor project, cell-based, SK-MEL-5, cherry-picked, set 3 (AID 493073); format: functional
T5 sequence (O75030 whole entry): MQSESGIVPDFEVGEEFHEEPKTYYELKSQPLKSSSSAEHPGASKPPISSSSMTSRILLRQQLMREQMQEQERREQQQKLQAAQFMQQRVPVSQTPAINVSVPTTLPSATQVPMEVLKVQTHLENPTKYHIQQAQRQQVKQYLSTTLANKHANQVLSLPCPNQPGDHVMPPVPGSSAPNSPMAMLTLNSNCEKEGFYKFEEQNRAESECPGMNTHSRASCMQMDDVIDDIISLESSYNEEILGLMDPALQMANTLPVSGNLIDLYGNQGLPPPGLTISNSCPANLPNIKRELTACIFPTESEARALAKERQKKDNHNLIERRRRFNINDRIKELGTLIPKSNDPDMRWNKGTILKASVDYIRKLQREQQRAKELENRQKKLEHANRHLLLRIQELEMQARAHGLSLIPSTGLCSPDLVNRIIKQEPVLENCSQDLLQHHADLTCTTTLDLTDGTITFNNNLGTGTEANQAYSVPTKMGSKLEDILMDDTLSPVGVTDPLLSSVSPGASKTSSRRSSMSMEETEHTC

A-375 = test: A375 melanoma cell viability reduction, dose response, counter-screen for MITF modulator project, cherry-pick samples, set 2 (AID 540335); format: functional, cell-based; conditions: Homo sapiens
[8] = growth suppression of beta-catenin-knockout colon cells, dose response, cell-based, HCT116, human colon tumor (AID 1045); format: functional;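 also: HCT116 colon tumor cells with beta catenin knocked out; cells exposed to compound for 60 hours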
INS1 = test: beta cell apoptosis inhibitors, cytokine rescue, dose response, luminescence, retest (AID 449756); format: functional, cell-based; conditions: Rattus norvegicus;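 also: cell death triggered by IL-1 beta plus TNF-alpha plus IFN-gamma mixture; protective hits raise ATP signal compared with cytokine alone wells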
[9] = target: ATP-dependent molecular chaperone HSP82 (Candida albicans (strain WO-1) (Yeast), UniProt C4YTQ8); test: loss of DOC-induced GRE-beta-galactosidase reporter signal, dose response, Hsp90 inhibitor project, S. cerevisiae, luminescence (AID 2400); format: functional, cell-based;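 also: beta-galactosidase luminescence from glucocorticoid response element reporter as proxy for Hsp90 function; inhibitor potency where signal loss means Hsp90 inhibition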
Chain of ATP-dependent molecular chaperone HSP82 (C4YTQ8 whole entry): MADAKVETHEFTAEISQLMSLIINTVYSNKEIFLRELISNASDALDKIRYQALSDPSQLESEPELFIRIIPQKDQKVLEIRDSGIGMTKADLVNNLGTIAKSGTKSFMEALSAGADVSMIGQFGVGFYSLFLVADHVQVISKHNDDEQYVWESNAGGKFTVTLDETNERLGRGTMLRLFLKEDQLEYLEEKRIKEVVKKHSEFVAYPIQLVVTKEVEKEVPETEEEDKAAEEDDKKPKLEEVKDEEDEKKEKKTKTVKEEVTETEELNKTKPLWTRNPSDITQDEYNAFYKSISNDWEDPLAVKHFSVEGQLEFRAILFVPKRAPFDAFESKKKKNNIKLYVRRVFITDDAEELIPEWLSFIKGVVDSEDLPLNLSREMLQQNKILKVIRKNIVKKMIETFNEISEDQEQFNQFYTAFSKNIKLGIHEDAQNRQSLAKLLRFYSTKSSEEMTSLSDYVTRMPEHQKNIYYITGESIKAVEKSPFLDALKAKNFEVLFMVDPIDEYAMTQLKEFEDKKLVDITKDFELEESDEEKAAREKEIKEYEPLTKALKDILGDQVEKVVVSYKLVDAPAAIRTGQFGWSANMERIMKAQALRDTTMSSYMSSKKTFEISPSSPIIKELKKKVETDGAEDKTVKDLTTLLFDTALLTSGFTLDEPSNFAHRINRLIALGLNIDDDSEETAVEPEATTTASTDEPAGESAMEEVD

[10] = NIH-3T3 fibroblast cytotoxicity, dose response, cytotoxicity control, cell-based, fluorescence, Alamar Blue, secondary assay (AID 2327); format: functional;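 also: NIH-3T3 mouse fibroblasts cultured with fluconazole at 8 µg/mL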
[11] = Luminescence-based cell-based high throughput dose response assay to identify activators of the DAF-12 from the parasite S. stercoralis (ssDAF-12).; format: functional
[12] = C. albicans growth with fluconazole, confirmation, fluorescence, retest (AID 2467); format: functional, cell-based
[13] = target: T6, Oxysterols receptor LXR-beta (Homo sapiens, UniProt P55055); format: functional, cell-based;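 also: Cell-based luminescence dose-response assay of agonist activity at LXR, run as a confirmatory counterscreen to a daf-12 agonist screen; HEK293 cells with Gal4-LXR fusion and GAL4-driven luciferase reporter; agonist potency from rising luciferase signal of a Gal4-LXR reporter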
T6 sequence (P55055 whole entry): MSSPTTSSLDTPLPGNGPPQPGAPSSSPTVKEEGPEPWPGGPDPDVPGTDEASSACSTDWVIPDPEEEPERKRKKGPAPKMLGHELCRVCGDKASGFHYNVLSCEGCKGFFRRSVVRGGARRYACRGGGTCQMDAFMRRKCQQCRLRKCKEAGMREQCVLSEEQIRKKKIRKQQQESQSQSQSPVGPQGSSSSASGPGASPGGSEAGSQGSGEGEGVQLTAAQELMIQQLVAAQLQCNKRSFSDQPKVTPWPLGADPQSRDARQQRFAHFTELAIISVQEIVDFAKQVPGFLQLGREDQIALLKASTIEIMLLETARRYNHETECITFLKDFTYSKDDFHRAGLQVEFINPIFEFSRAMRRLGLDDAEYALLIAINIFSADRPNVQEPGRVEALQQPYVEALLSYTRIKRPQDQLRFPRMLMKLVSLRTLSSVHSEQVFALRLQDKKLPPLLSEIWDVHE

[14] = target: Serine/threonine-protein phosphatase (Candida dubliniensis (strain CD36 / CBS 7987 / NCPF 3949 / NRRLY-17841) (Yeast), UniProt B9W6M3); test: calcineurin pathway inhibitors in yeast reporter, dose response, S. cerevisiae, CDRE-lacZ, luminescence, secondary (AID 2388); format: functional, cell-based;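 also: yeast reporter cells carrying a calcineurin-responsive lacZ construct stimulated with calcium chloride; luminescent beta-galactosidase reporter signal in whole cells rather than isolated phosphatase activity; potency for inhibition where a drop in reporter signal means calcineurin blockade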
Chain of Serine/threonine-protein phosphatase (B9W6M3 whole entry): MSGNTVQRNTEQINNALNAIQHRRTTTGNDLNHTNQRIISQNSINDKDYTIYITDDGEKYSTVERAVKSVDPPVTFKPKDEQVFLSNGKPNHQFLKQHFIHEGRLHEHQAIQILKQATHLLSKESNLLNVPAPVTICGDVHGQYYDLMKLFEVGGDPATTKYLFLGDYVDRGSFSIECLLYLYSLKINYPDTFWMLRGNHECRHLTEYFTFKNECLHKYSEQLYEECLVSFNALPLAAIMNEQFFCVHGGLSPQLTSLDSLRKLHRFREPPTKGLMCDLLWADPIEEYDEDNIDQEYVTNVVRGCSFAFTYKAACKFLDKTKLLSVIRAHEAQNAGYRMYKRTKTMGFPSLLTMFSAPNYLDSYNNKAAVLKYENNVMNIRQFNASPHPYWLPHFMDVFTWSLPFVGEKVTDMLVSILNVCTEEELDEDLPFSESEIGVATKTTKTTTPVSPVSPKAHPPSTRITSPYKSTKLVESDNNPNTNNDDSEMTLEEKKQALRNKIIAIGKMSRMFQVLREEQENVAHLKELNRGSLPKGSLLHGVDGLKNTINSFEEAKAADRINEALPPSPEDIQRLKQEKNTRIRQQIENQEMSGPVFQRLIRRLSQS

[15] = target: Nuclear receptor subfamily 0 group B member 1 (Homo sapiens, UniProt P51843); test: Luminescence-based cell-based high throughput dose response assay for inhibitors of the orphan nuclear receptor subfamily 0, group B, member 1 (DAX1; NR0B1). [Related pubchem assays (depositor defined):AID504766, AID504790]; format: functional
Chain of Nuclear receptor subfamily 0 group B member 1 (P51843 whole entry): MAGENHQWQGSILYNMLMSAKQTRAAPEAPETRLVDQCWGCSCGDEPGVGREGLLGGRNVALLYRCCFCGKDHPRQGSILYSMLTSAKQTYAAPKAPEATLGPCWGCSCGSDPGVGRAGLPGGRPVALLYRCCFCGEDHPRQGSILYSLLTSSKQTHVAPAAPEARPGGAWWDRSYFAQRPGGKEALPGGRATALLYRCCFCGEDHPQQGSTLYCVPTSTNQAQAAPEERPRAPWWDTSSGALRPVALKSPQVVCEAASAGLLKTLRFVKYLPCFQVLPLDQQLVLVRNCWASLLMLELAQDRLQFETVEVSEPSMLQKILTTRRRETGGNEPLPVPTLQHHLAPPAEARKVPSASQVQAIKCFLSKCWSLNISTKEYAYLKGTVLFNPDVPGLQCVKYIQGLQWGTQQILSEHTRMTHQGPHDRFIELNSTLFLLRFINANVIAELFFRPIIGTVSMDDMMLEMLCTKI

HEK293 = test: cells; format: functional, cell-based; conditions: Homo sapiens

## CCOc1ccc2c(c1)C(NC(C)=O)C(=O)N2CCN1CCOCC1 (stereo unspecified)
Hexokinase-1
  IC50: > 80 µM (inactive)
Protein RecA
  EC50: 12.6 µM (active)
[1]
  AC50: 27.3 µM (active)
[2]
  AC50: 27.8 µM (active)
Hexokinase HKDC1 [3]
  IC50: 8.44 µM (active)
Hexokinase HKDC1 [4]
  IC50: 6.63 µM (active)

## CC1CCC(C(C)C)C(OC(=O)Cn2c(-c3ccc(F)cc3)[n+](C)c3ccccc32)C1 (stereo unspecified)
[5]
  CC50: 40 µM (active)
[6]
  EC50: 4.98 µM (active)
[7]
  AC50: 5.57 µM (active)
A-375
  AC50: 47.2 µM (active)
[8]
  EC50: 4.18 µM (active)
INS1
  AC50: 3.69 µM (active)

## CN1/C(=C/C(=O)c2cccs2)Sc2ccccc21
[9]
  EC50: > 150 µM (inactive)
[10]
  EC50: 14.7 µM (active)
[11]
  IC50: > 67.5 µM (inactive)
[12]
  EC50: 2.02 µM (active)
[13]
  EC50: > 67.5 µM (inactive)
[14]
  EC50: > 180 µM (inactive)
cells
  EC50: > 67.5 µM (inactive)

## O=C(c1ccc(Br)cc1)c1coc2ccc(O)cc12
[15]
  IC50: > 67.5 µM (inactive)
HEK293
  IC50: > 67.5 µM (inactive)
